According to patent publication US20040038875A1, “Alpha 7nicotinic receptor screening assays” (priority 2002, published 2004):

Columns and labels:
[1] = tested on: neurons of the substantia nigra; conditions: cited from earlier work
[2] = target: T1, neuronal chick homomeric alpha 7 nicotinic receptors (Gallus gallus, UniProt P22770); conditions: in the μM range, chick receptor in oocytes; cited from earlier work
T1 construct: host or cells: oocytes

[3] = target: T2, homomeric alpha 7 nicotinic receptors (Homo sapiens, UniProt P36544); parameters: host or cells: oocytes; conditions: in the μM range, human receptor in oocytes; cited from earlier work
[4] = target: T2, homomeric alpha 7 nicotinic receptors; conditions: cited from earlier work
[5] = target: T3, human alpha 7 nicotinic receptor (Homo sapiens, UniProt P36544); assay: ACh-induced currents / Ca2+ flux in Xenopus oocytes expressing human alpha 7 nicotinic receptors (two microelectrode voltage clamp, intracellular recordings); format: cell-based
T3 construct: expressed in transfected cells; host or cells: Xenopus oocytes injected with in vitro transcribed alpha 7 subunit mRNA

[6] = tested on: hippocampal neurons; assay: Ca2+ flux into hippocampal neurons; format: cell-based
Description: This is of particular interest in relation to Alzheimer's Disease since the hippocampus is the major site of degeneration neuropathology associated with that disease.

T3 sequence (P36544 23-502): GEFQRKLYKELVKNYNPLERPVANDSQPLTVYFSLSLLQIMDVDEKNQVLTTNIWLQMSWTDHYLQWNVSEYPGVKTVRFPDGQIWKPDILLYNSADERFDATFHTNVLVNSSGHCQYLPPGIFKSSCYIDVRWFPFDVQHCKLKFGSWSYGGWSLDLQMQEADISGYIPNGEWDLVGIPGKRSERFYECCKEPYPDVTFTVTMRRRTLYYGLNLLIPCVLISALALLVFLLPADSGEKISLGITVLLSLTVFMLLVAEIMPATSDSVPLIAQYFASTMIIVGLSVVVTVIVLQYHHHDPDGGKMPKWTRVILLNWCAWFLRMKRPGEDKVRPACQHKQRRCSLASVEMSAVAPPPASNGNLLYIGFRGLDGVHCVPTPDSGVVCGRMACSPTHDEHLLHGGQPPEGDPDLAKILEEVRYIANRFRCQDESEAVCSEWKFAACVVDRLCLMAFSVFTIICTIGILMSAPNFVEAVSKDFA
T2 sequence (P36544 23-502): as above
T1 sequence (P22770 23-502 limits assumed): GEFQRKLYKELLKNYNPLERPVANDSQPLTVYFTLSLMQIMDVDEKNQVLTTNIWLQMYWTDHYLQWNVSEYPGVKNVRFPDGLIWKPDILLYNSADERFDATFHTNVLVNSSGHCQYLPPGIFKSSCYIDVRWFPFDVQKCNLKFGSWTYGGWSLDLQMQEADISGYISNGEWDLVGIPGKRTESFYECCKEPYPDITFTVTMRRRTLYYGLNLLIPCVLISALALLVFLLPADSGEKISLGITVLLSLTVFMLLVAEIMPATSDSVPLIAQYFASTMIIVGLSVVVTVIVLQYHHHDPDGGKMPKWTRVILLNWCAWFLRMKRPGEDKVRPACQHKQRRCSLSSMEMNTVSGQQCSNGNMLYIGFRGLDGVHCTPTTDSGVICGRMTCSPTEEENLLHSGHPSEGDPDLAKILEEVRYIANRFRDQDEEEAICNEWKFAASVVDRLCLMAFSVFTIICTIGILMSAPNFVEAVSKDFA

Molecule: Aβ1-42: Aβ1-42 fragment of human APP associated with Alzheimer's Disease [reference compound]
- modulation of calcium influx [1]: not observed

Molecule: ivermectin
- acetyl choline-evoked currents [2]: strongly enhance
- acetyl choline-evoked currents [3]: strongly enhance

Molecule: COc1ccc(/C=C2\CCCN=C2c2cccnc2)c(OC)c1 [GTS-21, 2,4-dimethoxybenzylidene anabaseine]
- functional selectivity compared to α4β2 nicotinic receptors [4]: high functional selectivity

Molecule: AEFHRWSSYMVHWK [Synaptica Peptide]
- reversibility of effects [5]: reversible but recovery was slow
- effect on ACh-induced Ca2+ flux ([5]; 0.001 μM applied with ACh, no pre-incubation): increased Ca^2+ flux
- Ca2+ current, intracellular recordings ([5]; 10 μM applied without ACh): no Ca^2+ current was observed
- current, intracellular recordings ([5]; 10 μM followed after 30 seconds by 100 μM ACh): reduced current compared to that observed with ACh alone
- effect on ACh-evoked response at high dose ([5]; high dose, range 10^−12 to 5×10^−6): enhancement of ACh-evoked response observed with low doses of the peptide was reversed
- effect on ACh-mediated responses ([5]; peptide applied, after 2 minutes co-application of peptide and ACh): inhibition of ACh-mediated responses
- calcium potentials induced by NMDA or direct depolarisation ([1]; initial effect): initially enhances calcium potentials
- calcium entry ([1]; sustained application for a few minutes): reduction in calcium entry
- Ca2+ flux into hippocampal neurons [6]: enhance Ca^2+ flux into hippocampal neurons which eventually switches off calcium channels
